Measured values from article PMC12102759 (Protein Science : A Publication of the Protein Society, 2025).
Read-outs that look alike come from different tables or passages of the source. Residues, ends and D or L forms follow the SMILES beside them. *: point of attachment. FITC = O=C1OC2(c3ccc(O)cc3Oc3cc(O)ccc32)c2ccc(NC(=S)*)cc21

How the values were obtained:
USP7 MATH = format: binding, human; conditions: DMS-CoV library, bait USP7 MATH, prey N, parental peptide SKQLQQSMSSADSTQA, label suffix = wt residue, displayed residue (same letter = wild type), x = no value
NSP3 ADRP [1] = target: T1, NSP3 ADRP (Severe acute respiratory syndrome coronavirus 2, UniProt P0DTC1); test: biochemical; format: binding, SARS‐CoV‐2
G3BP1 NTF2 = G3BP1 NTF2 (Homo sapiens, UniProt Q13283); test: biochemical; format: binding
Sequence of G3BP1 NTF2 (Q13283 1-139): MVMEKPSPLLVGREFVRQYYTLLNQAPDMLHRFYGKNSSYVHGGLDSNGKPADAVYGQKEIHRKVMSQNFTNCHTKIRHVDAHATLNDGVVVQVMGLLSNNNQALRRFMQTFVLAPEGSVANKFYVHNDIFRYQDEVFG

NSP3 SUD-M [2] = target: T2, NSP3 SUD-M (Severe acute respiratory syndrome coronavirus 2, UniProt P0DTC1); test: biochemical; format: binding, SARS‐CoV‐2
NSP9 [3] = target: T3, NSP9 (Severe acute respiratory syndrome coronavirus 2, UniProt P0DTC1); test: biochemical; format: binding, SARS‐CoV‐2
NSP3 UBl1 [4] = target: T4, NSP3 UBl1 (Severe acute respiratory syndrome coronavirus 2, UniProt P0DTC1); test: biochemical; format: binding, SARS‐CoV‐2
TLN1 PTB = TLN1 PTB (Homo sapiens, UniProt Q9Y490); test: biochemical; format: binding
Sequence of TLN1 PTB (Q9Y490 309-401): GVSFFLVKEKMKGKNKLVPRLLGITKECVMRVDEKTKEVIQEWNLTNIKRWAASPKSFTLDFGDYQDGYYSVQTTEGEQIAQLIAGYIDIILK

NSP3 SUD-M [5] = target: T2, NSP3 SUD-M; test: biochemical; format: binding, SARS‐CoV‐2; remark: listed apart in the source
NSP3 ADRP [6] = target: T1, NSP3 ADRP; test: biochemical; format: binding, SARS‐CoV‐2; remark: listed apart in the source
NSP3 UBl1 [7] = target: T4, NSP3 UBl1; test: biochemical; format: binding, SARS‐CoV‐2; remark: listed apart in the source
NSP9 [8] = target: T3, NSP9; test: biochemical; format: binding, SARS‐CoV‐2; remark: listed apart in the source

SKQLQQSMSSADSTQA S9S
DMS PSSM value (matrix of displayed amino acid x peptide position) (USP7 MATH): 1

Ac-STYIHPLSELLGIPLD-NH2 [MBOAT1 L20I]
IC50 (NSP3 ADRP [1]): 429 µM
Kd (NSP3 ADRP [1]): 152 µM

SKQLQQSMSSADSTQA Q3Q
DMS PSSM value (matrix of displayed amino acid x peptide position) (USP7 MATH): 1

Ac-APRITFGGFSDSTGSY-NH2 [N P20F]
IC50 (G3BP1 NTF2): 44 µM
Kd (G3BP1 NTF2): 14 µM

SKQLQQSMSSADSTQA Q15Q
DMS PSSM value (matrix of displayed amino acid x peptide position) (USP7 MATH): 1

SKQLQQSMSSADSTQA Q6Q
DMS PSSM value (matrix of displayed amino acid x peptide position) (USP7 MATH): 1

CC(C)C[C@H](NC(=O)[C@H](CC(=O)O)NC(=O)[C@H](CCC(=O)O)NC(=O)[C@H](CCC(=O)O)NC(=O)[C@@H](NC(=O)[C@H](Cc1ccccc1)NC(=S)Nc1ccc2c(c1)C(=O)OC21c2ccc(O)cc2Oc2cc(O)ccc21)[C@@H](C)O)C(=O)N[C@@H](Cc1c[nH]cn1)C(=O)N[C@@H](Cc1ccccc1)C(=O)N[C@H](C(=O)N[C@@H](CC(C)C)C(=O)N[C@@H](Cc1ccc(O)cc1)C(=O)NCC(=O)N[C@H](C(=O)N[C@H](C(=O)N1CCC[C@H]1C(=O)N[C@@H](CO)C(=O)O)[C@@H](C)O)C(C)C)C(C)C ({FITC}-FTEEDLHFVLYGVTPS-OH)
Kd (NSP3 SUD-M [2]): 19 µM

Ac-QGAWLGAPEYWEPLLD-NH2 [NOTCH4 P1615Y]
IC50 (NSP9 [3]): 152 µM
Kd (NSP9 [3]): 51 µM

Ac-PSDEQALLDQLYLALR-NH2 [NCOA2 G1077Q]
IC50 (NSP3 UBl1 [4]): 98 µM
Kd (NSP3 UBl1 [4]): 19 µM

Ac-STALHPLSELLGIPLDY-NH2 [MBOAT1 Y19A]
IC50 (NSP3 ADRP [1]): 452 µM
Kd (NSP3 ADRP [1]): 161 µM

Ac-APRIEFGGPSDSTGSY-NH2 [N T15E]
IC50 (G3BP1 NTF2): 49 µM

Ac-LADLIWTDSKLYIPLE-NH2 [TPTE2_92‐107 F97W]
Kd (TLN1 PTB): 0.1 µM
fold higher affinity than wild‐type TPTE2_92‐107 (TLN1 PTB): 44 fold

Ac-QGSWLGAPEPWEPLLD-NH2 [NOTCH4 A1608S]
IC50 (NSP9 [3]): 583 µM
Kd (NSP9 [3]): 216 µM

Ac-QGAWLGAPEPYEPLLD-NH2 [NOTCH4 W1616Y]
IC50 (NSP9 [3]): 167 µM
Kd (NSP9 [3]): 57 µM

Ac-QFTEEDLHFVLYGVTPY-NH2 [PRDM14 wt]
IC50 (NSP3 SUD-M [5]): 400 µM
Kd (NSP3 SUD-M [5]): 74 µM

Ac-QFTEEDLMFVLYGVTPY-NH2 [PRDM14 H203M]
IC50 (NSP3 SUD-M [5]): 124 µM
Kd (NSP3 SUD-M [5]): 13 µM

Ac-STYLHPLSELFGIPLD-NH2 [MBOAT1 L27F]
IC50 (NSP3 ADRP [1]): 255 µM
Kd (NSP3 ADRP [1]): 82 µM

Ac-PSDEGALLQQLYLALR-NH2 [NCOA2 D1081Q]
IC50 (NSP3 UBl1 [4]): 108 µM
Kd (NSP3 UBl1 [4]): 24 µM

Ac-PSDEQALLQQLYLALR-NH2 [NCOA2 G1077Q D1081Q]
IC50 (NSP3 UBl1 [4]): 66.2 µM
Kd (NSP3 UBl1 [4]): 5.1 µM

Ac-STYLHPLSELLTIPLD-NH2 [MBOAT1 G28T]
IC50 (NSP3 ADRP [1]): 311 µM
Kd (NSP3 ADRP [1]): 104 µM

CC[C@H](C)[C@H](NC(=O)CNC(=O)[C@H](CC(C)C)NC(=O)[C@H](CC(C)C)NC(=O)[C@H](CCC(=O)O)NC(=O)[C@H](CO)NC(=O)[C@H](CC(C)C)NC(=O)[C@@H]1CCCN1C(=O)[C@H](Cc1c[nH]cn1)NC(=O)[C@H](CC(C)C)NC(=O)[C@H](Cc1ccc(O)cc1)NC(=O)[C@@H](NC(=O)[C@H](CO)NC(=O)CNC(=S)Nc1ccc2c(c1)C(=O)OC21c2ccc(O)cc2Oc2cc(O)ccc21)[C@@H](C)O)C(=O)N1CCC[C@H]1C(=O)N[C@@H](CC(C)C)C(=O)O ({FITC}-GSTYLHPLSELLGIPL-OH)
Kd (NSP3 ADRP [6]): 50.8 µM

Ac-LADLIFTDSALYIPLE-NH2 [TPTE2_K101A]
Kd (TLN1 PTB): 15 µM

SKQLQQSMSSADSTQA D12D
DMS PSSM value (matrix of displayed amino acid x peptide position) (USP7 MATH): 1

SKQLQQSMSSADSTQA K2V (SVQLQQSMSSADSTQA)
DMS PSSM value (matrix of displayed amino acid x peptide position) (USP7 MATH): 1

CC(C)C[C@H](NC(=O)[C@H](C)NC(=O)[C@H](CC(C)C)NC(=O)[C@H](Cc1ccc(O)cc1)NC(=O)[C@H](CC(C)C)NC(=O)[C@H](CCC(N)=O)NC(=O)[C@H](CC(=O)O)NC(=O)[C@H](CC(C)C)NC(=O)[C@H](CC(C)C)NC(=O)[C@H](C)NC(=O)CNC(=O)[C@H](CCC(=O)O)NC(=O)[C@H](CC(=O)O)NC(=O)[C@H](CO)NC(=S)Nc1ccc2c(c1)C(=O)OC21c2ccc(O)cc2Oc2cc(O)ccc21)C(=O)N[C@@H](CCCNC(=N)N)C(=O)N[C@@H](CC(N)=O)C(=O)O ({FITC}-SDEGALLDQLYLALRN-OH)
Kd (NSP3 UBl1 [7]): 67 µM

SKQLQQSMSSADSTQA A11A
DMS PSSM value (matrix of displayed amino acid x peptide position) (USP7 MATH): 1

Ac-AERITFGGPSDSTGSY-NH2 [N P13E]
IC50 (G3BP1 NTF2): 22 µM
Kd (G3BP1 NTF2): 6.8 µM

Ac-QGAWLDAPEPWEPLLD-NH2 [NOTCH4 G1611D]
Kd (NSP9 [3]): 160 µM

CC[C@H](C)[C@H](NC(=O)CNC(=O)[C@H](CCC(=O)O)NC(=O)[C@H](C)NC(=S)Nc1ccc2c(c1)C(=O)OC21c2ccc(O)cc2Oc2cc(O)ccc21)C(=O)N[C@@H](CC(=O)O)C(=O)N[C@H](C(=O)NCC(=O)N[C@@H](CCC(=O)O)C(=O)N[C@@H](CCSC)C(=O)N1CCC[C@H]1C(=O)N[C@@H](CO)C(=O)N[C@@H](Cc1ccc(O)cc1)C(=O)N[C@@H](CC(=O)O)C(=O)N[C@@H](CC(C)C)C(=O)N[C@H](C(=O)N[C@@H](CC(C)C)C(=O)O)C(C)C)[C@@H](C)CC
Kd (NSP9 [8]): 15.5 µM
